Like-named read-outs stand apart in the source and are kept apart here.
System: complex formed by the invertebrate L-quisqualate sub-type L-glutamate receptor and its ion channel
Design: species or system Schistocerca gregaria
Method: The compounds were assayed for biological activity on the isolated, retractor unguis nerve-muscle preparation of the locust Schistocerca gregaria (Usherwood, P.N.R and Machili, P. (1968) J. Exp. Biol., 49: 341.). Isolated muscle preparations were bathed continuously in standard locust saline in a bath of volume 250µl. Twitch tension recordings of the muscle were made to electrical stimulation of its motor innervation supramaximal voltage, frequency 0.1Hz).
The locust isolated retractor unguis nerve-muscle is a preparation with well characterised muscle receptors belonging to the quisqualate-sensitive class (Boden, P. et al., (1986) Brain Res., 385: 205.). This preparation has previously been employed to identify antogonists of excitatory amino acid receptors, (e.g. Bateman, A. et al., (1985) Brain Res., 339: 237 and Budd, T. et al., (1988) Brain Res., 448: 30.).
The potency of this monocylated spermine as an antagonist of the complex formed by the invertebrate L-quisqualate sub-type L-glutamate receptor and its ion channel was assayed using the electrically stimulated retractor unguis muscle of the locust (Schistocerca gregaria). Twitch amplitude was reduced (1% inhibition) from control (100%) levels at the following concentrations: […]

NCCCNCCCCNCCCNC(=O)c1ccccc1O [Example 10]
Twitch amplitude was reduced from control level (1.09 x 10⁻⁵M): approximately 25%

NCCCNCCCNCCCNC(=O)Cc1cccc(O)c1 [Example 20, N-(3-Hydroxyphenylacetyl)-N′,N˝-bis(3-aminopropyl)-1,3-propanediamine]
Twitch amplitude was reduced from control (100%) levels (1.04 x 10⁻⁴M): approximately 60%

NCCCNCCCCNCCCNC(=O)C=Cc1ccc(O)cc1 [Example 6, N-(4-Hydroxycinnamoyl)-spermine]
Twitch amplitude was reduced from control (100%) levels (10⁻¹⁰M): 4% | Twitch amplitude was reduced from control (100%) levels (10⁻⁵M): 70% | Twitch amplitude was reduced from control (100%) levels (10⁻⁶M): 56% | Twitch amplitude was reduced from control (100%) levels (10⁻⁷M): 33% | Twitch amplitude was reduced from control (100%) levels (10⁻⁸M): 24% | Twitch amplitude was reduced from control (100%) levels (10⁻⁹M): 18%

NCCCNCCCCNCCCNC(=O)Cc1ccccc1O [Example 1, N-(2-Hydroxyphenylacetyl)-spermine]
inhibition of twitch (1.5 x 10⁻⁴M): 85% | inhibition of twitch (1.5 x 10⁻⁵M): 30% | inhibition of twitch (3 x 10⁻⁴M): 90% | inhibition of twitch (3 x 10⁻⁵M): 30% | inhibition of twitch (3 x 10⁻⁶M): 20% | inhibition of twitch (3 x 10⁻⁷M): 15% | inhibition of twitch (3 x 10⁻⁸M): 10% inhibition of twitch

NCCCNCCCNCCCNC(=O)Cc1ccc(O)cc1 [Example 21, N-(4-Hydroxyphenylacetyl)-N′,N˝-bis(3-aminopropyl)-1,3-propanediamine]
Twitch amplitude was reduced from control (100%) levels (10⁻⁴M): approximately 30%

NCCCNCCCCNCCCNC(=O)C=Cc1cccc(O)c1 [Example 13, N-(3-Hydroxycinnamoyl)-spermine]
Twitch amplitude was reduced from control levels (9.2 x 10⁻⁷M): approximately 25%

NCCCNCCCCNCCCNC(=O)c1cccc(O)c1 [Example 11, N-(3-Hydroxybenzoyl)-spermine]
Twitch amplitude was reduced from control levels (1.02 x 10⁻⁵M): approximately 40%

NCCCNCCCCNCCCNC(=O)CCc1ccc(O)cc1 [Example 22, N-(4-Hydroxyphenylpropanoyl)-spermine]
Twitch amplitude was reduced from control levels (1.45x 10^-5M): 38% | Twitch amplitude was reduced from control levels (1.45x 10^-6M): 30% | Twitch amplitude was reduced from control levels (2.9 x 10^-5M): 81% | Twitch amplitude was reduced from control levels (2.9 x 10^-6M): 38% | Twitch amplitude was reduced from control levels (2.9 x 10^-7M): 25% | Twitch amplitude was reduced from control levels (2.9 x 10^-8M): 10% | Twitch amplitude was reduced from control levels (7.25x 10^-5M): 100% | IC50 (reduction of twitch amplitude, retractor unguis muscle, read-out: IC₅₀): 6 µM

NCCCNCCCCNCCCNC(=O)CCc1cccc(O)c1 [Example 5, N(3-Hydroxyphenylpropanoyl)-spermine]
inhibition of twitch (1.08 x 10⁻⁶M): 15% | inhibition of twitch (1.08 x 10⁻⁷M): 10%

NCCCNCCCCNCCCNC(=O)Cc1ccc(O)cc1 [Example 3, N-(4-Hydroxyphenylacetyl)-spermine]
Twitch amplitude was reduced from control (100%) levels (2.95x 10⁻⁵M): 74% | Twitch amplitude was reduced from control (100%) levels (4.43x 10⁻⁵M): 91% | Twitch amplitude was reduced from control (100%) levels (5.9 x 10⁻⁵M): 96% | Twitch amplitude was reduced from control (100%) levels (5.9 x 10⁻⁶M): 25% | Twitch amplitude was reduced from control (100%) levels (5.9 x 10⁻⁷M): 9%

NCCCNCCCCNCCCNC(=O)Cc1cc(O)cc(O)c1 [Example 9, N-(3,5-Dihydroxyphenylacetyl)-spermine]
Twitch amplitude was reduced from control levels (1 07 x 10⁻⁶M): 25% | Twitch amplitude was reduced from control levels (1.07 x 10⁻⁵M): 45%

NCCCNCCCCNCCCNC(=O)Cc1cccc(O)c1 [Example 2, N-(3-Hydroxyphenylacetyl)-spermine]
inhibition of twitch (3 x 10⁻⁷M): 35% | inhibition of twitch (3 x 10⁻⁸M): 30%
